The source made the active and inactive calls. The rule behind the calls is not given here.
System: L. donovani-infected THP-1 macrophages, intracellular amastigote imaging
Assay: intracellular L. donovani amastigote inhibition, imaging, THP-1 host macrophages, host toxicity (AID 1159564)
[1] = measured here: THP-1 host cell toxicity
[2] = measured here: amastigotes per macrophage

With `O=C1NCCn2ccc(Nc3nc(NC4CCC(O)CC4)ncc3Cl)c21` (centres undefined) the IC50 was 1 µM, the IC50 [1] was 0.4 µM and the IC50 [2] was 0.63 µM.
In the case of `CC1CCCCN1C(=O)NCCc1coc(-c2ccc(F)cc2)n1` (centres undefined), the IC50 is reported as > 50 µM (inactive), the IC50 [1] is reported as > 50 µM and the IC50 [2] is reported as > 50 µM.
In the case of `O=C(CCCNC(=O)c1ccc(Cl)cc1)Nc1nc(-c2ccccn2)cs1`, the IC50 is reported as 5 µM, the IC50 [1] is reported as > 50 µM and the IC50 [2] is reported as 3.2 µM.
For `O=C(NCC1CCCCN1C(=O)c1cccc2ccccc12)c1ccccc1` (centres undefined), the IC50 was > 50 µM (inactive), the IC50 [1] was > 50 µM and the IC50 [2] was > 50 µM.
For `COc1ccc(C(=O)N2CCC(Nc3cccnc3)C2)c(OC)n1` (centres undefined), the IC50 was > 50 µM (inactive), the IC50 [1] was > 50 µM and the IC50 [2] was > 50 µM.
With `CC(C)Oc1ccc(C(=O)Nc2ccc(N3CCOCC3)c(Cl)c2)cc1` the IC50 was > 50 µM (inactive), the IC50 [1] was > 50 µM and the IC50 [2] was 3.2 µM.
For `COc1ccc(S(=O)(=O)NC(C)C)cc1Nc1ncc(-c2cccc(F)c2)cn1`, the IC50 was > 50 µM (inactive), the IC50 [1] was > 50 µM and the IC50 [2] was > 50 µM.
With `CN(CCOc1ccc(Cl)cc1)Cc1nc(N)nc(N(C)C)n1` the IC50 was 7.9 µM, the IC50 [1] was > 50 µM and the IC50 [2] was 5 µM.
In the case of `CCOC(=O)c1cn[nH]c1S(=O)(=O)N1CCC1c1ccccc1` (centres undefined), the IC50 is reported as > 50 µM (inactive), the IC50 [1] is reported as > 50 µM and the IC50 [2] is reported as > 50 µM.
For `CCn1nccc1CN(C)C(=O)C=Cc1ccc(Cl)cc1`, the IC50 was > 50 µM (inactive), the IC50 [1] was > 50 µM and the IC50 [2] was > 50 µM.
In the case of `CC(C)c1sc(Cl)nc1C(=O)NCCc1nc(C(=O)Nc2ccc3c(c2)OCO3)cs1`, the IC50 is reported as 5 µM, the IC50 [1] is reported as > 50 µM and the IC50 [2] is reported as 2.5 µM.
`O=C(Nc1cccc(S(=O)(=O)Nc2ccc(Br)cc2)c1)c1ccc([N+](=O)[O-])s1` gave an IC50 of 1 µM, an IC50 [1] of 10 µM and an IC50 [2] of 0.79 µM.
With `OCCCNc1nc(Nc2ccncc2)nc2ccccc12` the IC50 was > 50 µM (inactive), the IC50 [1] was > 50 µM and the IC50 [2] was > 50 µM.
`O=C(Nc1nc(-c2ccc(F)cc2)cs1)c1ccc([N+](=O)[O-])s1` was tested, and the IC50 was 1.3 µM, the IC50 [1] was 7.9 µM and the IC50 [2] was 1 µM.
With `N#Cc1cc([N+](=O)[O-])ccc1NC1CCCCCC1` the IC50 was > 50 µM (inactive), the IC50 [1] was > 50 µM and the IC50 [2] was > 50 µM.
With `Cc1nc(C(=O)Nc2ccc3c(c2)OCO3)nn1-c1ccc(F)cc1` the IC50 was 7.9 µM, the IC50 [1] was > 50 µM and the IC50 [2] was 2.5 µM.
In the case of `CN(C)CCOc1ccc(N2CCN(S(=O)(=O)c3ccc(Cl)cc3)CC2)cc1`, the IC50 is reported as 32 µM, the IC50 [1] is reported as > 50 µM and the IC50 [2] is reported as 32 µM.
In the case of `O=C(NCc1nnc2n1CCCCC2)c1csc(-c2ccccc2)n1`, the IC50 is reported as > 50 µM (inactive), the IC50 [1] is reported as > 50 µM and the IC50 [2] is reported as > 50 µM.
In the case of `O=C(COc1nn(-c2ccccc2)c2ncccc12)NCc1ccccc1`, the IC50 is reported as 0.32 µM, the IC50 [1] is reported as > 50 µM and the IC50 [2] is reported as 0.079 µM.
With `C[C@@H](Oc1cc(-n2cnc3cc(N)ccc32)sc1C(N)=O)c1ccccc1Cl` the IC50 was 32 µM, the IC50 [1] was 25 µM and the IC50 [2] was 20 µM.
`CC(C)(C)C(=O)Nc1cc(C2CC2)nn1-c1nc2c(c(=O)[nH]1)CCCC2` was tested, and the IC50 was 5 µM, the IC50 [1] was 7.9 µM and the IC50 [2] was 2 µM.
Work on `CC(C)(C)Nc1nc(Nc2ccc3c(c2)CS(=O)(=O)C3)nc2[nH]ccc12` yielded an IC50 of 6.3 µM, an IC50 [1] of 20 µM and an IC50 [2] of 5 µM.
For `Cc1ccccc1NS(=O)(=O)c1ccc2[nH]cc(C(=O)NC3CCCC3)c(=O)c2c1`, the IC50 was > 50 µM (inactive), the IC50 [1] was 32 µM and the IC50 [2] was 40 µM.
`C[C@@H](Oc1cc(-n2cnc3ccc(CC(O)CO)cc32)sc1C(N)=O)c1ccccc1Cl` (some centres undefined) gave an IC50 of 40 µM, an IC50 [1] of 40 µM and an IC50 [2] of 32 µM.
In the case of `COc1ccc(C2C3CCCCC3(O)CCN2CC(=O)Nc2ccc(Cl)cc2Cl)cc1` (centres undefined), the IC50 is reported as 2.5 µM, the IC50 [1] is reported as > 50 µM and the IC50 [2] is reported as 0.79 µM.
`Cc1ccc2nc(N(Cc3cccnc3)C(=O)CCc3ccccc3)sc2c1` was tested, and the IC50 was > 50 µM (inactive), the IC50 [1] was > 50 µM and the IC50 [2] was > 50 µM.
`O=C(CCc1ccc(-c2ccccc2)o1)N1CCN(c2ccc(O)cc2)CC1` was tested, and the IC50 was 4 µM, the IC50 [1] was > 50 µM and the IC50 [2] was 1.3 µM.
Compound `NCC(Cc1ccccc1)NC(=O)c1cnc(-c2c[nH]c3ncccc23)s1` (centres undefined) has an IC50 of 16 µM, an IC50 [1] of 6.3 µM and an IC50 [2] of 13 µM.
In the case of `CCCCn1c(=O)c2c(N)onc2n(CCCC)c1=O`, the IC50 is reported as > 50 µM (inactive), the IC50 [1] is reported as > 50 µM and the IC50 [2] is reported as 32 µM.
`CCOc1cc(NCCCN2CCN(C)CC2)c2ncccc2c1` showed an IC50 of 1.3 µM, an IC50 [1] of 6.3 µM and an IC50 [2] of 0.79 µM.
In the case of `Fc1ccccc1N1C[C@H]2CCN(c3cccnc3)C[C@H]2C1`, the IC50 is reported as > 50 µM (inactive) and the IC50 [1] is reported as > 50 µM.
`CCN(CC)c1nc(Nc2ccncc2)nc2ccccc12` gave an IC50 of 6.3 µM, an IC50 [1] of 25 µM and an IC50 [2] of 2 µM.
`CNS(=O)(=O)c1ccccc1Nc1nc(Nc2ccnn2C)ncc1Cl` showed an IC50 of 0.63 µM, an IC50 [1] of 0.32 µM and an IC50 [2] of 0.4 µM.
For `Cc1nnnn1-c1cccc(C(=O)N2CCC[C@@]3(C)c4ncncc4CCC23)c1` (some centres undefined), the IC50 was > 50 µM (inactive), the IC50 [1] was > 50 µM and the IC50 [2] was 6.3 µM.
`Cc1[nH]n2c(=O)c3c(nc2c1-c1ccc(F)cc1)CCCC3` was tested, and the IC50 was > 50 µM (inactive), the IC50 [1] was > 50 µM and the IC50 [2] was > 50 µM.
For `Cc1cc(C#N)c([N+](=O)[O-])cc1Br`, the IC50 was 40 µM, the IC50 [1] was 25 µM and the IC50 [2] was 32 µM.
`CC(CCc1ccccc1)NC(=O)CN(Cc1ccccn1)Cc1ccccn1` (centres undefined) was tested, and the IC50 was 3.2 µM, the IC50 [1] was 20 µM and the IC50 [2] was 3.2 µM.
`COc1cccc(CN(C)Cc2nc(N)c3c(C)c(C)sc3n2)c1` was tested, and the IC50 was 5 µM, the IC50 [1] was 32 µM and the IC50 [2] was 3.2 µM.
`CS(=O)(=O)c1ccc(Nc2nccc(Nc3n[nH]c4ccc(F)cc34)n2)c(F)c1` gave an IC50 of 13 µM, an IC50 [1] of 16 µM and an IC50 [2] of 10 µM.
`Cc1cnc(Nc2cc(Cc3ccccc3)nc(NC3CCC(O)CC3)n2)s1` (centres undefined) was tested, and the IC50 was 0.04 µM, the IC50 [1] was 0.025 µM and the IC50 [2] was 0.032 µM.
For `CCC(CC)C(=O)Nc1cccc(C(=O)Nc2nnc(C3CCCCC3)s2)c1`, the IC50 was > 50 µM (inactive), the IC50 [1] was > 50 µM and the IC50 [2] was > 50 µM.
`COc1ccc(-c2csc(NC(=O)c3ccc([N+](=O)[O-])s3)n2)cc1OC` gave an IC50 of 1.3 µM, an IC50 [1] of 32 µM and an IC50 [2] of 1.3 µM.
For `O=C(NCC(c1cccnc1)N1CCc2ccccc2C1)C(=O)Nc1cccc(Cl)c1` (centres undefined), the IC50 was > 50 µM (inactive), the IC50 [1] was > 50 µM and the IC50 [2] was > 50 µM.
Compound `CN(C)S(=O)(=O)c1ccc(-c2cnc(N)c(-c3nc4ccc(F)cc4[nH]3)c2)cc1` has an IC50 of 1.6 µM, an IC50 [1] of 4 µM and an IC50 [2] of 0.63 µM.
`CN(Cc1cccnc1)Cc1ccc(N2CCN(C(=O)C3(c4ccc(Cl)cc4)CC3)CC2)nc1` was tested, and the IC50 was > 50 µM (inactive), the IC50 [1] was 10 µM and the IC50 [2] was > 50 µM.
`Cc1cc(N2CCc3ccccc3C2)nc(Nc2ccc(S(=O)(=O)N3CCOCC3)cc2)n1` was tested, and the IC50 was 5 µM, the IC50 [1] was 25 µM and the IC50 [2] was 1.6 µM.
For `COc1ccc(C(=O)[C@H]2C[C@@H]2CN(Cc2ccccn2)Cc2ccccn2)cc1`, the IC50 was 1.6 µM, the IC50 [1] was > 50 µM and the IC50 [2] was 1.3 µM.
`O=C(Nc1ccc(-c2nc3ccccc3c(=O)[nH]2)cc1)c1cccs1` was tested, and the IC50 was > 50 µM (inactive), the IC50 [1] was > 50 µM and the IC50 [2] was > 50 µM.
For `Cc1cc2nc(CN(C)Cc3ncccc3C)[nH]c2cc1C`, the IC50 was 0.63 µM, the IC50 [1] was 7.9 µM and the IC50 [2] was 0.5 µM.
For `O=C(Cc1ccccc1)Nc1ccccc1C(=O)Nc1nccs1`, the IC50 was > 50 µM (inactive), the IC50 [1] was > 50 µM and the IC50 [2] was > 50 µM.

— PubChem BioAssay AID1159564 (GlaxoSmithKline (GSK), 2015)
